Data as given in paper PMC12769565, “Design, synthesis and biological activity of glycoconjugated ADAMTS5 exosite inhibitors: applications in osteoarthritis and ovarian cancer models” (Scientific Reports, 2025).

Experiments:
[1] = test system: A2780 OC cells over-expressing Rab25; experiment: OC cell migration on cell-derived matrix (pseudopod length, directionality, velocity); format: cell-based; settings: cells on CDM
Procedure: A2780 OC cells over-expressing Rab25 (A2780-Rab25), generated in G. Mills lab[71], and telomerase-immortalised human fibroblasts (TIFs) were a gift from Jim Norman lab (CRUK Scotland Institute). A2780-Rab25 cells were grown in RPMI media (Gibco), supplemented with 10% (v/v) FBS. TIFs were grown in DMEM, supplemented with 10% FBS. To maintain Rab25 over-expression, A2780-Rab25 cells were selected with 0.4 mg/ml G418 every 10 passages.
CDMs were generated as previously described[72] in 12 well plates. Wells were coated with 0.2% gelatin for 60 min at 37 °C, crosslinked with 1% glutaraldehyde for 30 min at room temperature, quenched with 1 M glycine for 20 min at room temperature and equilibrated in DMEM for 30 min at 37 °C. TIFs (2.5 × 10^5 per well) were seeded for 24 h to achieve confluency and grown in the presence of 50 µg/ml ascorbic acid for 9 days. CDMs were washed with PBS, incubated with extraction buffer (20 mM NH4OH, 0.5% Triton X-100 in PBS with Ca^2+ and Mg^2+) for ~ 2 min, until no intact cells were visible by phase, washed twice with PBS with Ca^2+ and Mg^2+ and treated with 15 µg/ml DNase for 1 h at 37 °C, 5% CO2. CDMs were washed twice with PBS with Ca^2+ and Mg^2+ and stored in PBS with Ca^2+ and Mg^2+ at 4 °C for up to one month.
A2780-Rab25 cells (5 × 10^4 per well) were seeded onto a CDM-coated 12-well plate. Compound 2 was added 4 h after plating. Plates were imaged in a Nikon Inverted Ti eclipse microscope with Oko-lab environmental control chamber with a 10x/NA 0.45 objective. Cells were incubated at 37 °C and 5% CO2, images were acquired every 10 min for 12 h and more than 40 cells per well were quantified per biological replicate. Individual cell migration was manually tracked using MTrack2, a Fiji/ImageJ plugin. The chemotaxis tool plugin in Fiji/Image J (https://ibidi.com/chemotaxis-analysis/171-chemotaxis-and-migration-tool.html) was used to calculate the velocity and directionality of migrating cells.

ADAMTS5 = target: T1, ADAMTS5 (Homo sapiens, UniProt Q9UNA0); experiment: Aggrecanase assay (bovine aggrecan, anti-ARGSV neoepitope immunoblot); format: biochemical
T1 construct: Human recombinant full-length FLAG-tagged ADAMTS4 and ADAMTS5 were expressed in HEK293T cells; FLAG; made in house; host or cells: HEK293T cells
T1 sequence (Q9UNA0 262-930): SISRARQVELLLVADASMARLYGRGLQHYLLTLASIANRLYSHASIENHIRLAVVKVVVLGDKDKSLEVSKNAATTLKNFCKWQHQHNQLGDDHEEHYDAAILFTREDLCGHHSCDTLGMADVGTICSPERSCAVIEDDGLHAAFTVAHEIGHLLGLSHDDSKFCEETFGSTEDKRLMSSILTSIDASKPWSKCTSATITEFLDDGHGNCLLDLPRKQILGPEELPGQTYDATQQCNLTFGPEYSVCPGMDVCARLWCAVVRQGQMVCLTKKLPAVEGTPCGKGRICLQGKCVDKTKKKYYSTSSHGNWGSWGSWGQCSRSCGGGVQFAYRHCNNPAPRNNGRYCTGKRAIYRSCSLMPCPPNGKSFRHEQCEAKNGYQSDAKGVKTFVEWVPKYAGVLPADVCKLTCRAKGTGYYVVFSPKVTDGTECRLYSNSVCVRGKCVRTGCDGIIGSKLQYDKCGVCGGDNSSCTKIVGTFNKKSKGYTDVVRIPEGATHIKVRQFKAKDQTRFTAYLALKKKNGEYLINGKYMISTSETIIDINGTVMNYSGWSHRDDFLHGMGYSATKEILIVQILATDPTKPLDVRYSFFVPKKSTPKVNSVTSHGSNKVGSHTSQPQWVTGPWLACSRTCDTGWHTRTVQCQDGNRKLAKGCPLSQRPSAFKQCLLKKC
Procedure: Aggrecanase assays were carried out as before. ADAMTS5 (1 nM) was incubated with compounds 2 and 3 or DMSO for 2 h at 37 °C in TNC-B buffer before addition of bovine articular aggrecan (UniProt ID: P13608, 270 nM) (Merck, A1960). After 2 h digestion at 37 °C, the reactions were stopped with ethylenediaminetetraacetic acid and the samples incubated with 0.1 U/ml of chondroitinase ABC (AMS Biotechnology, Abingdon, UK) and keratanase (endo-beta galactosidase, Merck, G6920) in deglycosylation buffer (50 mM sodium acetate, 25 mM Tris HCl pH 8.0) for 16 h at 37 °C to remove GAG chains.
Samples were separated by SDS-PAGE under reducing conditions (5% β-mercaptoethanol) on BOLT, 4–12%, Bis-Tris Gels (Invitrogen) in MES Running Buffer (NuPAGE). Proteins were transferred onto a nitrocellulose membrane using Trans-Blot Turbo™ Transfer System (BioRad), at 25 V, 2.5 A for 30 min. Membranes were blocked with 3% BSA/PBS for 1 h at room temperature. Aggrecan fragments generated by ADAMTS cleavage at E^392-A^393[8] or E^1953-A^1954[68] were detected using mouse monoclonal anti-ARGSV antibody (BC3, Life Technologies, MA3-16888, 4 µg/ml) or polyclonal anti-AGEG neoepitope antibody (serum, 1:200 dilution)[12],[33], respectively, followed by the appropriate horseradish peroxidase (HRP)-conjugated secondary antibodies (polyclonal Goat Anti-Mouse P0447, 0.1 ng/µl and polyclonal Goat Anti-Rabbit, P0448, 0.03 ng/µl, both from Agilent Technologies LDA UK Ltd). All antibodies were diluted in 0.5% bovine serum albumin (BSA)/PBS. Washes between each step were carried out in triplicate, for 15 min each, with PBS-Tween (0.1%). Following addition of the chemiluminescent HRP substrate (Millipore, WBKL30500) membranes were imaged using Bio-Rad Chemidoc Touch Imaging System. Analysis was carried out using BioRad ImageLab software (version 5.2.1) using sequential exposures to avoid saturation artifacts. Figures for unprocessed blots are included in Supplementary information Fig. S4 and Fig. S5 with highlighted regions (in red boxes) corresponding to the data reported in the main manuscript figures.

[2] = tested at 10 or 50 µM, concentration of this value not stated

SMILES: CCC(C)N(Cc1cn(CCCO[C@@H]2O[C@H](CO)[C@@H](O[C@@H]3O[C@H](CO)[C@H](O)[C@H](O)[C@H]3O)[C@H](O)[C@H]2NC(C)=O)nn1)S(=O)(=O)c1ccc(-c2ccccc2)cc1 (stereo partly drawn) [compound 2, N-((2R,3R,4R,5 S,6R)-2-(3-(4-((N-(sec-butyl)-[1,1’-biphenyl]-4-sulfonamido)methyl)-1H-1,2,3-triazol-1-yl)propoxy)-4-hydroxy-6-(hydroxymethyl)-5-(((2 S,3R,4 S,5R,6R)-3,4,5-trihydroxy-6-(hydroxymethyl)tetrahydro-2 H-pyran-2-yl)oxy)tetrahydro-2 H-pyran-3-yl)acetamide]
- velocity of cell migration ([1]; 10 or 50 µM): without affecting
- inhibition in directionality of cell migration [1, 2]: 43%
- inhibition in pseudopod elongation [1, 2]: 35%
- inhibition at 10 µM (ADAMTS5; 10 µM): 53%
- inhibition at 100 µM (ADAMTS5; 100 µM): 80%
